According to ChEMBL document CHEMBL3576781, “Substituted Bis-THF Protease Inhibitors with Improved Potency against Highly Resistant Mature HIV-1 Protease PR20” (J Med Chem, 2015):
The source made the active and inactive calls. The rule behind the calls is not given here.

What was measured:
[1] = Inhibition of HIV1 protease PR20 mutant expressed in Escherichia coli BL21 (DE3) incubated for 5 mins followed by Abz-Thr-Ile-Nle-p-nitro-Phe-GlnArg-NH2 substrate addition and measured over 5 mins by microplate reader based assay; design: species or system Human immunodeficiency virus 1
[2] = system: Human immunodeficiency virus 1; assay: Antiviral activity against HIV1 by cell based MTT assay; assay type: functional, organism-based
Protease = Protease (Human immunodeficiency virus 1, UniProt Q9YQ12); assay: Inhibition of wild type HIV1 protease
Sequence of Protease (Q9YQ12 whole entry): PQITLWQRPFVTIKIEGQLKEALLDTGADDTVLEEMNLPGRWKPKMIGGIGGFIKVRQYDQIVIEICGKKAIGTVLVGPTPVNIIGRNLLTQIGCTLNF

[3] = system: Human immunodeficiency virus 1; assay: Inhibition of N-terminal autoprocessing of transframe region-comprising HIV1 protease PR20 mutant precursor up to 100 uM by SDS-PAGE method
[4] = system: Human immunodeficiency virus 1; assay: Antiviral activity against HIV1 LAI infected in human MT2 cells by MTT assay; assay type: functional, organism-based; conditions: Human immunodeficiency virus 1, LAI
[5] = Binding affinity to HIV1 protease PR20 mutant expressed in Escherichia coli BL21 (DE3) assessed as ligand dissociation constant by ITC method; design: species or system Human immunodeficiency virus 1

SMILES | Ki [1] [nM] | IC50 [2] [nM] | Ki (Protease) [pM] | inhibition [3] | EC50 [4] [nM] | Kd [5] [nM]
COc1ccc(S(=O)(=O)N(CC(C)C)C[C@@H](O)[C@H](Cc2ccccc2)NC(=O)O[C@H]2CO[C@H]3OC[C@H](OC)[C@H]32)cc1 | 4.3 | 2.4 | 2.9 | inactive |  | 
CC(C)CN(C[C@@H](O)[C@H](Cc1ccccc1)NC(=O)O[C@H]1CO[C@H]2OCC(F)(F)[C@H]21)S(=O)(=O)c1ccc(N)cc1 | 1.7 |  | 5.8 | inactive | 3 | 
CC(C)CN(C[C@@H](O)[C@H](Cc1ccccc1)NC(=O)O[C@H]1CO[C@H]2OCC[C@H]21)S(=O)(=O)c1ccc(N)cc1 |  |  |  |  |  | 41
